Several values for one entry are separate records, joined by “and”; a condition that tells them apart may be missing. Equal values may be shown once.
Tests used:
[1] = target: E3 ubiquitin-protein ligase TRIM33 (Homo sapiens) (UniProt Q9UPN9); details: Compound concentration […], Protein concentration 200.0 uM
[2] = target: Histone-lysine N-methyltransferase ASH1L (Homo sapiens) (UniProt Q9NR48); details: Compound concentration 10.0 uM, Protein concentration 2.0 uM
[3] = target: ATPase family AAA domain-containing protein 2 (Homo sapiens) (UniProt Q6PL18); details: Compound concentration 10.0 uM, Protein concentration 2.0 uM
[4] = target: ATPase family AAA domain-containing protein 2B (Homo sapiens) (UniProt Q9ULI0); details: Compound concentration 10.0 uM, Protein concentration 2.0 uM
[5] = target: Bromodomain adjacent to zinc finger domain protein 1A (Homo sapiens) (UniProt Q9NRL2); details: Compound concentration 10.0 uM, Protein concentration 2.0 uM
[6] = target: Tyrosine-protein kinase BAZ1B (Homo sapiens) (UniProt Q9UIG0); details: Compound concentration 10.0 uM, Protein concentration 2.0 uM
[7] = target: Bromodomain adjacent to zinc finger domain protein 2A (Homo sapiens) (UniProt Q9UIF9); details: Compound concentration 10.0 uM, Protein concentration 2.0 uM
[8] = target: Bromodomain adjacent to zinc finger domain protein 2B (Homo sapiens) (UniProt Q9UIF8); details: Compound concentration 10.0 uM, Protein concentration 2.0 uM
[9] = target: Nucleosome-remodeling factor subunit BPTF (Homo sapiens) (UniProt Q12830); details: Compound concentration 10.0 uM, Protein concentration 2.0 uM
[10] = target: Bromodomain-containing protein 2 (Homo sapiens) (UniProt P25440); details: Compound concentration 10.0 uM, Protein concentration 2.0 uM
[11] = target: Bromodomain-containing protein 2 (Homo sapiens) (UniProt P25440); details: Compound concentration 10.0 uM, Protein concentration 2.0 uM; remark: listed apart in the source
[12] = target: Bromodomain-containing protein 3 (Homo sapiens) (UniProt Q15059); details: Compound concentration 10.0 uM, Protein concentration 2.0 uM
[13] = target: Bromodomain-containing protein 3 (Homo sapiens) (UniProt Q15059); details: Compound concentration 10.0 uM, Protein concentration 2.0 uM; remark: listed apart in the source
[14] = target: Bromodomain-containing protein 4 (Homo sapiens) (UniProt O60885); details: Compound concentration 10.0 uM, Protein concentration 2.0 uM
[15] = target: Bromodomain-containing protein 7 (Homo sapiens) (UniProt Q9NPI1); details: Compound concentration 10.0 uM, Protein concentration 2.0 uM
[16] = target: Bromodomain-containing protein 9 (Homo sapiens) (UniProt Q9H8M2); details: Compound concentration 10.0 uM, Protein concentration 2.0 uM
[17] = target: Bromodomain testis-specific protein (Homo sapiens) (UniProt Q58F21); details: Compound concentration 10.0 uM, Protein concentration 2.0 uM
[18] = target: Bromodomain testis-specific protein (Homo sapiens) (UniProt Q58F21); details: Compound concentration 10.0 uM, Protein concentration 2.0 uM; remark: listed apart in the source
[19] = target: Bromodomain and PHD finger-containing protein 3 (Homo sapiens) (UniProt Q9ULD4); details: Compound concentration 10.0 uM, Protein concentration 2.0 uM
[20] = target: Bromodomain and WD repeat-containing protein 3 (Homo sapiens) (UniProt Q6RI45); details: Compound concentration 10.0 uM, Protein concentration 2.0 uM
[21] = target: Histone acetyltransferase p300 (Homo sapiens) (UniProt Q09472); details: Compound concentration 10.0 uM, Protein concentration 2.0 uM
[22] = target: Histone acetyltransferase KAT2A (Homo sapiens) (UniProt Q92830); details: Compound concentration 10.0 uM, Protein concentration 2.0 uM
[23] = target: Histone acetyltransferase KAT2B (Homo sapiens) (UniProt Q92831); details: Compound concentration 10.0 uM, Protein concentration 2.0 uM
[24] = target: Histone-lysine N-methyltransferase 2A (Homo sapiens) (UniProt Q03164); details: Compound concentration 10.0 uM, Protein concentration 2.0 uM
[25] = target: Protein polybromo-1 (Homo sapiens) (UniProt Q86U86); details: Compound concentration 10.0 uM, Protein concentration 2.0 uM
[26] = target: Protein polybromo-1 (Homo sapiens) (UniProt Q86U86); details: Compound concentration 10.0 uM, Protein concentration 2.0 uM; remark: listed apart in the source
[27] = target: Protein polybromo-1 (Homo sapiens) (UniProt Q86U86); details: Compound concentration 10.0 uM, Protein concentration 2.0 uM; remark: listed apart in the source
[28] = target: Protein polybromo-1 (Homo sapiens) (UniProt Q86U86); details: Compound concentration 10.0 uM, Protein concentration 2.0 uM; remark: listed apart in the source
[29] = target: Protein polybromo-1 (Homo sapiens) (UniProt Q86U86); details: Compound concentration 10.0 uM, Protein concentration 2.0 uM; remark: listed apart in the source
[30] = target: Protein polybromo-1 (Homo sapiens) (UniProt Q86U86); details: Compound concentration 10.0 uM, Protein concentration 2.0 uM; remark: listed apart in the source
[31] = target: PH-interacting protein (Homo sapiens) (UniProt Q8WWQ0); details: Compound concentration 10.0 uM, Protein concentration 2.0 uM
[32] = target: SWI/SNF-related matrix-associated actin-dependent regulator of chromatin subfamily A member 2 (Homo sapiens) (UniProt P51531); details: Compound concentration 10.0 uM, Protein concentration 2.0 uM
[33] = target: SWI/SNF-related matrix-associated actin-dependent regulator of chromatin subfamily A member 4 (Homo sapiens) (UniProt P51532); details: Compound concentration 10.0 uM, Protein concentration 2.0 uM
[34] = target: Nuclear body protein SP140 (Homo sapiens) (UniProt Q13342); details: Compound concentration 10.0 uM, Protein concentration 2.0 uM
[35] = target: Nuclear body protein SP140-like protein (Homo sapiens) (UniProt Q9H930); details: Compound concentration 10.0 uM, Protein concentration 2.0 uM
[36] = target: Transcription initiation factor TFIID subunit 1 (Homo sapiens) (UniProt P21675); details: Compound concentration 10.0 uM, Protein concentration 2.0 uM
[37] = target: Transcription initiation factor TFIID subunit 1 (Homo sapiens) (UniProt P21675); details: Compound concentration 10.0 uM, Protein concentration 2.0 uM; remark: listed apart in the source
[38] = target: Transcription initiation factor TFIID subunit 1-like (Homo sapiens) (UniProt Q8IZX4); details: Compound concentration 10.0 uM, Protein concentration 2.0 uM
[39] = target: Transcription initiation factor TFIID subunit 1-like (Homo sapiens) (UniProt Q8IZX4); details: Compound concentration 10.0 uM, Protein concentration 2.0 uM; remark: listed apart in the source
[40] = target: Transcription intermediary factor 1-alpha (Homo sapiens) (UniProt O15164); details: Compound concentration 10.0 uM, Protein concentration 2.0 uM
[41] = target: Transcription intermediary factor 1-beta (Homo sapiens) (UniProt Q13263); details: Compound concentration 10.0 uM, Protein concentration 2.0 uM
[42] = target: Bromodomain-containing protein 4 (Homo sapiens) (UniProt O60885); details: Compound concentration 10.0 uM, Protein concentration 2.0 uM; remark: listed apart in the source
[43] = target: Transcription intermediary factor 1-alpha (Homo sapiens) (UniProt O15164); details: Compound concentration 10.0 uM, Protein concentration 2.0 uM; remark: listed apart in the source

Chain of Protein polybromo-1 (Homo sapiens) (Q86U86 whole entry): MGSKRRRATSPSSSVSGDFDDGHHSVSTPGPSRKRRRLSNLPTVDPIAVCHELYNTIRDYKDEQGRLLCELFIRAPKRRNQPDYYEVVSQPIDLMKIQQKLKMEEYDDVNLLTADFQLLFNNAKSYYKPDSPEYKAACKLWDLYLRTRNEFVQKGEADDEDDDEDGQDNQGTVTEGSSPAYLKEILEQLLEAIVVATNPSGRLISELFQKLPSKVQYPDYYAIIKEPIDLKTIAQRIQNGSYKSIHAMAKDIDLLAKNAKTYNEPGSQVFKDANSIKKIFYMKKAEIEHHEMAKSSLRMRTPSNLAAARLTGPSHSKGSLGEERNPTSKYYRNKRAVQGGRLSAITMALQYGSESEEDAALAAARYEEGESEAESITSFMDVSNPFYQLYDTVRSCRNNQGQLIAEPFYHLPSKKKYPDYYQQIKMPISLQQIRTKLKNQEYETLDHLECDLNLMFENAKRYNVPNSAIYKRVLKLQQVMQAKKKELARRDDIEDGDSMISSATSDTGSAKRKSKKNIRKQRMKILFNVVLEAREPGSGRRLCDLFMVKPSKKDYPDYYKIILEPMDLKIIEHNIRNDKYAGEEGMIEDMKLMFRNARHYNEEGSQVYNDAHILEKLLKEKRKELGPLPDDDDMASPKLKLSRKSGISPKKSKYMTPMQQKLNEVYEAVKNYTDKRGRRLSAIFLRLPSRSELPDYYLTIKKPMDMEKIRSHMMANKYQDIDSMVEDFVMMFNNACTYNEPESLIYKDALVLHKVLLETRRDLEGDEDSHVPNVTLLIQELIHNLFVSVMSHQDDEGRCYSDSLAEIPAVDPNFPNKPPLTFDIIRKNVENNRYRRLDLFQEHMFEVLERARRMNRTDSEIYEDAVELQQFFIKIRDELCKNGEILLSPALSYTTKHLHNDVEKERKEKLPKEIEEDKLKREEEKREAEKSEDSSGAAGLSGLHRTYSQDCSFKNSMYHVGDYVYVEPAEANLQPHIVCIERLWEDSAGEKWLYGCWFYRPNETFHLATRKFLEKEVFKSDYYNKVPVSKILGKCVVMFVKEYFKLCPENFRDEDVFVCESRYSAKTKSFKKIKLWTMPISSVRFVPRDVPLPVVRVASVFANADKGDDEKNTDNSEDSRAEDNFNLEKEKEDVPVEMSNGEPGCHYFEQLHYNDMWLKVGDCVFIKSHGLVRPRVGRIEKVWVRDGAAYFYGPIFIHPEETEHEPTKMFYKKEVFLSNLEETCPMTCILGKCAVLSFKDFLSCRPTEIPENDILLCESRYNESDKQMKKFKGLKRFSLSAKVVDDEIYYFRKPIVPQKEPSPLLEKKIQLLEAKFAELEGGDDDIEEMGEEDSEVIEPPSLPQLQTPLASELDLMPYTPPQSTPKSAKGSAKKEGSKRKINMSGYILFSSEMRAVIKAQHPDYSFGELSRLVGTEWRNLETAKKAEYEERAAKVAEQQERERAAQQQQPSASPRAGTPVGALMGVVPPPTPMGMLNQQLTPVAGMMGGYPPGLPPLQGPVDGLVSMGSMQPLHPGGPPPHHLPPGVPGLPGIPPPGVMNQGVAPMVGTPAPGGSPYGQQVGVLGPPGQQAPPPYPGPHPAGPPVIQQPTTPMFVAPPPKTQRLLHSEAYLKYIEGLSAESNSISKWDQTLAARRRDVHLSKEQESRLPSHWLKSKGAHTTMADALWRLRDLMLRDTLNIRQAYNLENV
Chain of Transcription initiation factor TFIID subunit 1 (Homo sapiens) (P21675 whole entry): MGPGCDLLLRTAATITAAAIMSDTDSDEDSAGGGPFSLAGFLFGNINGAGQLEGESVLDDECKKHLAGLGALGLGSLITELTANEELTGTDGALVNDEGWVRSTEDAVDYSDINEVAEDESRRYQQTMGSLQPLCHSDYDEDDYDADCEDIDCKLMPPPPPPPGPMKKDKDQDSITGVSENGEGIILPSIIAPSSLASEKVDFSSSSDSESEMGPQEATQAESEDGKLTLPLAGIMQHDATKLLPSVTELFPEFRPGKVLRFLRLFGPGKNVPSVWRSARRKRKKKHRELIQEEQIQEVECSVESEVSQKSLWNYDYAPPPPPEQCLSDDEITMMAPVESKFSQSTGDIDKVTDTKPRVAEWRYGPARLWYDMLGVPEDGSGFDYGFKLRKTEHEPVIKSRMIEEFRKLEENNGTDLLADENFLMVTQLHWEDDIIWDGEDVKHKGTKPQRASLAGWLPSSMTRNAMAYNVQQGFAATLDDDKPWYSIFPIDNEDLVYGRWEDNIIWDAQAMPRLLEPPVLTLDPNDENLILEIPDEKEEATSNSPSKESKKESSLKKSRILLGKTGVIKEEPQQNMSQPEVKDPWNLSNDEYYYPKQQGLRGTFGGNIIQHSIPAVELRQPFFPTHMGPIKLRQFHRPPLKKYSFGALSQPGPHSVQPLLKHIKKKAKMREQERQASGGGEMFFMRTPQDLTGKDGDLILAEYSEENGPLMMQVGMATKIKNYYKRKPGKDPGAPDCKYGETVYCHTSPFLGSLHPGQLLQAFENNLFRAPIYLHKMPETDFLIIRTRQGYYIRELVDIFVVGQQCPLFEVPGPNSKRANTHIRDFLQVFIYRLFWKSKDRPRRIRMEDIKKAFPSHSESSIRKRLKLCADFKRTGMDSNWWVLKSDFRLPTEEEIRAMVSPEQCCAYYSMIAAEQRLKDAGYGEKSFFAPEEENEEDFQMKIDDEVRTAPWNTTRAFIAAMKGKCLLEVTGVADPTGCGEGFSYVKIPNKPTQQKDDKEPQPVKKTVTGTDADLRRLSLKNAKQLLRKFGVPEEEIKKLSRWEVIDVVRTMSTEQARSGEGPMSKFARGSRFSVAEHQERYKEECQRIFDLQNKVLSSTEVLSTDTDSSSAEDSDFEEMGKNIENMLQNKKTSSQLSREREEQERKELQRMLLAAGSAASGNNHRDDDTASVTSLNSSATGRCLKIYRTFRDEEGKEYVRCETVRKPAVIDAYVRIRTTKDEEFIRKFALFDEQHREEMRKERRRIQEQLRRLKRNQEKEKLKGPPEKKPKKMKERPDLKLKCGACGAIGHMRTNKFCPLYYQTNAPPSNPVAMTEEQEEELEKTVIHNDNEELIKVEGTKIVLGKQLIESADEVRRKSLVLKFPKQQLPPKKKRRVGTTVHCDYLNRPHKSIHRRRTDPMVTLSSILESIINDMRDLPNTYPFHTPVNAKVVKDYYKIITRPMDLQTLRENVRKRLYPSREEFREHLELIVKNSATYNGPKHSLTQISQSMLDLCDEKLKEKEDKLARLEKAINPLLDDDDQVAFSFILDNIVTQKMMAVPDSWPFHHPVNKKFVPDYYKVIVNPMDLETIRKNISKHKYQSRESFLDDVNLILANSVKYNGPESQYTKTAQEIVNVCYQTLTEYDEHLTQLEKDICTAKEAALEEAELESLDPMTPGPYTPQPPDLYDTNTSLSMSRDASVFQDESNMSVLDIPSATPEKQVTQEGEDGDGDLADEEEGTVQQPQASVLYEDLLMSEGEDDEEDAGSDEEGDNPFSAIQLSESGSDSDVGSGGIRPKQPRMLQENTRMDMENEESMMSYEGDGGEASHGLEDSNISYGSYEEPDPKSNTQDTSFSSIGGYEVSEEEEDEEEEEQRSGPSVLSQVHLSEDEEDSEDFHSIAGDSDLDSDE
Chain of Transcription intermediary factor 1-alpha (Homo sapiens) (O15164 whole entry): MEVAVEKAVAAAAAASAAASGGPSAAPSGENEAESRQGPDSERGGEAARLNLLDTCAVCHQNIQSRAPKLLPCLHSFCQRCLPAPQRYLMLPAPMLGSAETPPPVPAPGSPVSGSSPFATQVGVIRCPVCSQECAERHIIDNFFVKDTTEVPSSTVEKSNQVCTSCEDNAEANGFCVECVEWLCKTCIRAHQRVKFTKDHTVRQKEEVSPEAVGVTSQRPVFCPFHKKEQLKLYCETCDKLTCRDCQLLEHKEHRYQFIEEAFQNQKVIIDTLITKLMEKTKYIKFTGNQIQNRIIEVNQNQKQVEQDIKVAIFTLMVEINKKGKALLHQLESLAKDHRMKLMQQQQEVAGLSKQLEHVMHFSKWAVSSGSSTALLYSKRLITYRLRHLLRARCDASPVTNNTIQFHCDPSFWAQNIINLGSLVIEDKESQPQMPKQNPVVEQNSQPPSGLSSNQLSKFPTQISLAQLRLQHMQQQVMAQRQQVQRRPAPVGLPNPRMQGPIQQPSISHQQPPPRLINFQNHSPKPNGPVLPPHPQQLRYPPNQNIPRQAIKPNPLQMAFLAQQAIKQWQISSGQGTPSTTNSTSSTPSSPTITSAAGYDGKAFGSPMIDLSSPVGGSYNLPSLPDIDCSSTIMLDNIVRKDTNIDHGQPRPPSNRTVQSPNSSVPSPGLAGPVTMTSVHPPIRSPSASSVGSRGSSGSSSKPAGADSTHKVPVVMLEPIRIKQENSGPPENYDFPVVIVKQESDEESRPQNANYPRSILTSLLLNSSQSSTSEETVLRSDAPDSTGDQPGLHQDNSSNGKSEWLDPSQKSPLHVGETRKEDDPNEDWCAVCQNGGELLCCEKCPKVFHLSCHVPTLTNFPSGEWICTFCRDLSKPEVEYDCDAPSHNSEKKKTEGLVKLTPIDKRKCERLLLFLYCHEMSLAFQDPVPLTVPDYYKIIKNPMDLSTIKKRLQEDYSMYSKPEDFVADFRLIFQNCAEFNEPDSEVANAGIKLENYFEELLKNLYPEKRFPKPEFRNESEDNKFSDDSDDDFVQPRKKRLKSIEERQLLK

inhibition [1]: 35.5% | ΔTm [2]: 0.36 °C | ΔTm [3]: -0.03 °C | ΔTm [4]: -0.04 °C | ΔTm [5]: 0.5 °C | ΔTm [6]: -0.03 °C | ΔTm [7]: 0.5 °C | ΔTm [8]: 0.88 °C | ΔTm [9]: 0.31 °C | ΔTm [10]: 0.75 °C | ΔTm [11]: 0.74 °C | ΔTm [12]: 0.33 °C | ΔTm [13]: 0.74 °C | ΔTm [14]: 0.33 °C | ΔTm [15]: 3.84 °C | ΔTm [16]: 1.21 °C | ΔTm [17]: 0.27 °C | ΔTm [18]: 0.18 °C | ΔTm [19]: 2.36 °C and 1.34 °C | ΔTm [20]: -0.2 °C | ΔTm [21]: 0.9 °C | ΔTm [22]: 0.21 °C | ΔTm [23]: 2.09 °C | ΔTm [24]: 0.13 °C | ΔTm [25]: 0.26 °C | ΔTm [26]: -0.44 °C | ΔTm [27]: 0.54 °C | ΔTm [28]: 0.73 °C | ΔTm [29]: -0.35 °C | ΔTm [30]: 0.03 °C | ΔTm [31]: 0.71 °C | ΔTm [32]: 0.18 °C | ΔTm [33]: 0.2 °C | ΔTm [34]: 0.2 °C | ΔTm [35]: -0.24 °C | ΔTm [36]: 0.9 °C | ΔTm [37]: 0.33 °C | ΔTm [38]: 0.31 °C | ΔTm [39]: 0.79 °C | ΔTm [40]: 1.35 °C | ΔTm [41]: -0.53 °C | ΔTm [42]: 1.37 °C | ΔTm [43]: 0.72 °C
Compound: COc1ccccc1C(=O)Nc1cc2c(cc1N1CCCC1)n(C)c(=O)n2C

Source: ChEMBL document CHEMBL4649987, “Benzoisoquinolinediones as Potent and Selective Inhibitors of BRPF2 and TAF1/TAF1L Bromodomains” (ACS Chem Biol, 2017)
